Consider 28 compounds from US7169785B2, “Methods and compositions of novel triazine compounds” (Reddy US Therapeutics, Inc., priority 2001, dated 2007).

For orientation: IC50 means the point on the concentration scale where inhibition reaches its midpoint.

The assay relates to IL-6. In words: TNF-α-induced IL-6 production determined by IL-6 ELISA in HAEC. It is filed as cell-based, human. The following applies: HAEC; for activity at 10 µM / activity at 5 µM: 24 h; for Inhibition of TNF-induced IL6 production: class of % of control IL6 production; for activity at 5 µM: read-out: % IL6 production compare to TNF stimulation of IL6 (100%), @ 5 uM. On the procedure: Human aortic endothelial cells (HAEC, Clonetics) were cultured according to manufacturer in growth medium (Clonetics): basal medium containing human epidermal growth factor, hydrocortisone, vascular endothelial growth factor, heparin binding growth factor-B, long R3-insulin-like growth factor-1, ascorbic acid, gentamicin/amphotericin and 5% FBS. These cell were allowed to reach at least 90% confluency before subjected to experimental treatments. Glycated human serum albumin (G-HSA) was from US Biologicals. Tumor necrosis factor α was from R&D Systems.
[…] All treatments, compound-added and controls were carried out in serum free media containing 0.2% albumin. Media from all conditions were collected and used for IL-6 ELISA.
IL-6 ELISA was carried out using human IL-6 DuoSet ELISA development kit as described by manufacturer (R&D Systems). Mouse anti-human Il-6 was used as the capture antibody (2 ug/ml) and biotinylated goat anti-human IL-6 (200 ng/ml) was used as the detection antibody. Culture media were incubated with capture antibody (in 96 well) for 2 h at room temperature. Wells were washed three times with wash buffer (0.05% tween-20 in phosphate buffered saline (PBS) pH 7.4) followed by incubation with detection antibody for 2 h at room temperature. Following three washes wells were incubated with Streptavidin-HRP for 20 min. Color development was read at 450 nm in a Microplate reader.
In general terms: ELISA stands for enzyme-linked immunosorbent assay.

The mark [1] stands for this setting: Homo sapiens, Compds tested @ 10 uM, IL6, read-out: % IL6 production compare to TNF stimulation of IL6 (100%).
Setting [2] is: Homo sapiens, read-out: % IL6 production compare to TNF stimulation of IL6 (100%), Compds tested @ 10 uM, IL6.

Like-named read-outs stand apart in the source and are kept apart here.

Regarding `CCN1CCC[C@H]1CNc1nc(NC2CCCCCC2)nc(N(CC#N)c2ccccc2)n1` [Compound 143, ({4-cycloheptylamino-6-[((S)-1-ethyl-pyrrolidin-2-ylmethyl)-amino]-1,3,5-triazin-2-yl}-phenyl-amino)-acetonitrile], the activity at 10 µM under setting [1] worked out at 18.9%.
Consider `COc1ccc(Nc2nc(NC3CCCCCC3)nc(N3CCOCC3)n2)cc1F` [Compound 175, N-Cycloheptyl-N′-(3-fluoro-4-methoxy-phenyl)-6-morpholin-4-yl-[1,3,5]triazine-2,4-diamine], for which the “% IL6 production compare to TNF stimulation to IL6 (100%)” value (shortened to “% IL6 production compare”) (Compds tested @ 10 uM) was determined as 18%.
Turning to `COc1ccc(Nc2nc(NC3CCCCCC3)nc(N3CCCC4CCCCC43)n2)cc1F` (centres unmarked) [Compound 84, N^2-cycloheptyl-N^4-(3-fluoro-4-methoxyphenyl)-6-octahydro-1(2H)-quinolinyl-1,3,5-triazine-2,4-diamine], the activity at 10 µM under setting [1] was found to be 33%.
In the case of `CCN1CCCC1CNc1nc(Nc2ccc(OC)c(Cl)c2)nc(NC2CCCCCC2)n1` (centres unmarked) [Compound 48, N^2-(3-chloro-4-methoxyphenyl)-N^4-cycloheptyl-N^6-[(1-ethyl-2-pyrrolidinyl)methyl]-1,3,5-triazine-2,4,6-triamine], the IC50 (Homo sapiens, IL6, unit inferred, read-out: IC50 (TNF stimulation of IL6)) turned out to be 4.3 µM.
`COc1ccc(Nc2nc(NCCN3CCCCC3)nc(NC3CCCCCC3)n2)cc1F` [Compound 96, N^2-cycloheptyl-N^4-(3-fluoro-4-methoxyphenyl)-N^6-[2-(1-piperidinyl)ethyl]-1,3,5-triazine-2,4,6-triamine]: under setting [1], the activity at 10 µM turned out to be 6%.
The same measure, in the same setting: the value for `CCN1CCCC1CNc1nc(Nc2ccc(N3CCN(C)CC3)cc2)nc(NC2CCCCCC2)n1` (centres unmarked) [Compound 28, N^2-cycloheptyl-N^4-[(1-ethyl-2-pyrrolidinyl)methyl]-N^6-[4-(4-methyl-1-piperazinyl)phenyl]-1,3,5-triazine-2,4,6-triamine] was 23%.
As for `COc1ccc(Nc2nc(N3CCOCC3)nc(N3CCN(Cc4ccccc4)CC3)n2)cc1` [Compound 173, [4-(4-Benzyl-piperazin-1-yl)-6-morpholin-4-yl-[1,3,5]triazin-2-yl]-(4-methoxy-phenyl)-amine], the “% IL6 production compare” value (Compds tested @ 10 uM) is 47%.
Regarding `COc1ccc(Nc2nc(NC3CCCCCC3)nc(N3CCCCCC3)n2)cc1F` [Compound 83, N^2-cycloheptyl-N^4-(3-fluoro-4-methoxyphenyl)-6-hexahydro-1H-azepin-1-yl-1,3,5-triazine-2,4-diamine], the activity at 10 µM under setting [1] turned out to be 18%.
Take `CCN1CCCC1CNc1nc(Nc2ccc(OC)c(F)c2)nc(NC2CCCC2)n1` (centres unmarked) [Compound 56, N^2-cyclopentyl-N^4-[(1-ethyl-2-pyrrolidinyl)methyl]-N^6-(3-fluoro-4-methoxyphenyl)-1,3,5-triazine-2,4,6-triamine]: the activity at 10 µM under setting [1] stood at 1%.
Take `c1ccc(Nc2nc(NC3CCCCCC3)nc(N3CCOCC3)n2)cc1` [Compound 176, N-Cycloheptyl-6-morpholin-4-yl-N′-phenyl-[1,3,5]triazine-2,4-diamine]: under “Compds tested @ 10 uM”, the “% IL6 production compare” value turned out to be 33%.
As for `COC[C@@H]1CCCN1c1nc(Nc2ccc(OC)c(F)c2)nc(NC2CCCCCC2)n1` [Compound 86, N^2-cycloheptyl-N^4-(3-fluoro-4-methoxyphenyl)-6-[(2S)-2-(methoxymethyl)-1-pyrrolidinyl]-1,3,5-triazine-2,4-diamine], the activity at 10 µM under setting [1] was 19%.
On the same count and under the same terms, the value for `CCN1CCCC1CNc1nc(Nc2ccc(OC)c(F)c2)nc(NC2CCCCC2)n1` (centres unmarked) [Compound 55, N^2-cyclohexyl-N^4-[(1-ethyl-2-pyrrolidinyl)methyl]-N^6-(3-fluoro-4-methoxyphenyl)-1,3,5-triazine-2,4,6-triamine] was 1%; that for `CCN1CCCC1CNc1nc(Nc2ccc(OC)c(F)c2)nc(N2CCN(C(C)=O)CC2)n1` (centres unmarked) [Compound 63, 6-(4-acetyl-1-piperazinyl)-N^2-[(1-ethyl-2-pyrrolidinyl)methyl]-N^4-(3-fluoro-4-methoxyphenyl)-1,3,5-triazine-2,4-diamine] was 26%; that for `CCN1CCCC1CNc1nc(Nc2ccc(OC)c(F)c2)nc(NC2CCC(C)CC2)n1` (centres unmarked) [Compound 60, N^2-[(1-ethyl-2-pyrrolidinyl)methyl]-N^4-(3-fluoro-4-methoxyphenyl)-N^6-(4-methylcyclohexyl)-1,3,5-triazine-2,4,6-triamine] was 1%.
With `CN1CCC(N(C)c2nc(Nc3ccc4ccccc4c3)nc(NC3CCCCCC3)n2)CC1` [Compound 172, N-Cycloheptyl-N′-methyl-N′-(1-methyl-piperidin-4-yl)-N″-naphthalen-2-yl-[1,3,5]triazine-2,4,6-triamine], the “% IL6 production compare” value (Compds tested @ 10 uM) is listed as 18%.
For `COc1ccc(Nc2nc(NCc3ccccc3)nc(NC3CCCCCC3)n2)cc1F` [Compound 78, N^2-benzyl-N^4-cycloheptyl-N^6-(3-fluoro-4-methoxyphenyl)-1,3,5-triazine-2,4,6-triamine], the activity at 10 µM under setting [1] came to 47%.
Consider `c1ccc2cc(Nc3nc(NC4CCCCCC4)nc(N4CCOCC4)n3)ccc2c1` [Compound 174, N-Cycloheptyl-6-morpholin-4-yl-N′-naphthalen-2-yl-[1,3,5]triazine-2,4-diamine], for which, for the setting “Compds tested @ 10 uM”, the “% IL6 production compare” value is given as 34%.
As to `CCN1CCC[C@H]1CNc1nc(NCC2CCCCC2)nc(Nc2ccc(OC)c(F)c2)n1` [Compound 141, N^2-cyclohexylmethyl-N^4-((S)-1-ethyl-pyrrolidin-2-ylmethyl)-N^6-(3-fluoro-4-methoxyphenyl)-1,3,5-triazine-2,4,6-triamine], the activity at 10 µM under setting [1] amounted to 23.4%.
Regarding `COc1ccc(Nc2nc(NCCCCCO)nc(N(C)C3CCN(C)CC3)n2)cc1Cl` [Compound 108, 5-{4-(3-Chloro-4-methoxy-phenylamino)-6-[methyl-(1-methyl-piperidin-4-yl)-amino]-[1,3,5]triazin-2-ylamino}-pentan-1-ol], the “Inhibition of TNF-induced IL6 production” value is “+++ (between about 25 and about 50% of control IL6 production)”. For the same compound, under setting [2], the activity at 10 µM stood at 25%.
For `COc1ccc(Nc2nc(NC3CCCCCC3)nc(N(C)Cc3ccccc3)n2)cc1` [Compound 178, N-Benzyl-N′-cycloheptyl-N″-(4-methoxy-phenyl)-N-methyl-[1,3,5]triazine-2,4,6-triamine], the “% IL6 production compare” value (Compds tested @ 10 uM) is 19%.
As to `COc1ccc(Nc2nc(NC3CCCCCC3)nc(N3CCN(C(C)=O)CC3)n2)cc1F` [Compound 88, 6-(4-acetyl-1-piperazinyl)-N^2-cycloheptyl-N^4-(3-fluoro-4-methoxyphenyl)-1,3,5-triazine-2,4-diamine], under setting [1], the activity at 10 µM came to 19%.
The same measure, in the same setting: the value for `CCN1CCC[C@@H]1CNc1nc(NCC2CCCCC2)nc(Nc2ccc(OC)c(F)c2)n1` [Compound 142, N^2-cyclohexylmethyl-N^4-((R)-1-ethyl-pyrrolidin-2-ylmethyl)-N^6-(3-fluoro-4-methoxyphenyl)-1,3,5-triazine-2,4,6-triamine] was 21.6%; that for `COc1ccc(Nc2nc(NCc3ccco3)nc(NC3CCCCCC3)n2)cc1F` [Compound 91, N^2-cycloheptyl-N^4-(3-fluoro-4-methoxyphenyl)-N^6-(2-furanylmethyl)-1,3,5-triazine-2,4,6-triamine] was 28%.
The same measure, in the same setting: the figure for `COc1ccc(Nc2nc(NC3CCCCCC3)nc(NC(C)(C)C)n2)cc1F` [Compound 77, N^2-(tert-butyl)-N^4-cycloheptyl-N^6-(3-fluoro-4-methoxyphenyl)-1,3,5-triazine-2,4,6-triamine] is 21%.
For the compound `CCCCN(CCC)c1nc(Nc2ccc(OC)c(Cl)c2)nc(N(C)C2CCNCC2)n1` [Compound 112, N^2-Butyl-N^4-(3-chloro-4-methoxy-phenyl)-N^6-methyl-N^6-piperidin-4-yl-N^2-propyl-1,3,5-triazine-2,4,6-triamine], the “Inhibition of TNF-induced IL6 production” value is “+ (between about 75 and 100% of control IL6 production)”. For the setting “Homo sapiens, IL6”, the activity at 5 µM was determined as 90%.
`CCCCN(CCC)c1nc(Nc2ccc(OC)c(Cl)c2)nc(N(C)C2CCN(C)CC2)n1` [Compound 111, N-Butyl-N′-(3-chloro-4-methoxy-phenyl)-N″-methyl-N″-(1-methyl-piperidin-4-yl)-N-propyl-[1,3,5]triazine-2,4,6-triamine]: the “Inhibition of TNF-induced IL6 production” value was “+ (between about 75 and 100% of control IL6 production)”. Further, under “Homo sapiens, IL6”, the activity at 5 µM came to 46%. Further, the activity at 10 µM under setting [2] is more than 90%.
Take `COc1ccc(Nc2nc(NC3CC3)nc(NC3CC3)n2)cc1F` [Compound 157, N,N′-dicyclopropyl-N″-(3-fluoro-4-methoxy-phenyl)-1,3,5-triazine-2,4,6-triamine]: the activity at 10 µM under setting [1] worked out at 60.5%.
Same read-out and setting: the figure for `CCNc1nc(NCC2CCCN2CC)nc(Nc2ccc(OC)c(F)c2)n1` (centres unmarked) [Compound 51, N^2-ethyl-N^4-[(1-ethyl-2-pyrrolidinyl)methyl]-N^6-(3-fluoro-4-methoxyphenyl)-1,3,5-triazine-2,4,6-triamine] is 1%.
